Legend:
HIV-1 viral RNA = test: Human HIV clinical protocol: viral load (bDNA); assay type: in vivo; details: after three 5-day courses of intermittent dosing over 153 days
Experimental: Otherwise untreated patients with CD4 counts of ≧200/μL and HIV-1 viral RNA between 5,000 and 1,000,000 copies/mL (branched-DNA, version 3.0, Bayer, Tarrytown, N.Y.) provided informed consent and were enrolled into a Phase I/II dose-escalation study of the safety and efficacy of intramuscular injections of BrEA. The protocol was conducted in South Africa. In the first cohort, four patients received an initial injection of 1 mL (50 mg), followed by a safety and pharmocokinetic study for seven days, and then received five daily injections of 1 mL (50 mg). The second cohort of 8 patients was randomized in a 1:2 ratio to receive either 50 mg (1 mL) or 100 mg (2 mL) on the same schedule. […]
CD4 counts were assessed using a FACScount (BDIS), and viral loads were measured using the bDNA assay (Bayer). […]
Statistical analysis of changes in surface phenotypes, hematological, and viral parameters were performed by calculating the area under the curve (AUC) of the percentage difference from baselines (phenotype), percentage difference from the mean of screen and baseline values (hematology), or log10 change from the mean of screen and baseline values (plasma viral RNA) for individual patients. AUC were calculated using the actual number of days between analysis visits for each patient. […]

[1] = Accelerated stability study of BrEA and the example 1 formulations; assay type: physicochemical
Experimental: An accelerated stability study of 6 months duration is conducted using BrEA and the formulations from example 1. Samples are taken at 1, 2, 3, 4, 5, and 6 month time points and compared with the specifications listed in example 1. Real time stability (25° C., 60% relative humidity) is conducted using BrEA formulation Lots 1 and 2, with sampling time points at 3, 6, 9, 12, 18, 24, and 36 months. […] The results from the stability testing indicate that BrEA is stable for at least 3 months at elevated temperature and humidity in the Lot 1 and 2 formulations.

[2] = Plasma pharmacokinetics of 14C BrEA in Rhesus Monkeys; assay type: in vivo; details: 1 mg/kg s.c. 14C BrEA
Experimental: A pharmacokinetic analysis of ^14C BrEA in plasma was conducted in two female Rhesus Monkeys. Trace labeled compound (16α-bromo-3-beta-hydroxy-5α-[4-^14C]-androstan-17-one [50 mCi/mmole]) was used at a dose of 1 mg/kg as a subcutaneous injection in the scapular region using an injection volume of 1 mL/kg. The BrEA was formulated in 25% polyethylene glycol 300, 12.5% absolute ethanol, 5% benzyl benzoate, and qs with propylene glycol. 40 μCi were injected per animal. Blood samples were taken at 0, 0.5, 1, 2, 4, 8, and 24 hours for determination of ^14C activity. The radioactivity in the plasma rose to near peak concentration in 8 hours and remained at approximately the same level through the end of the study at 24 hours.

HIV = HIV RNA level by PCR in HIV/HCV infected patient dosed I.V. with BrEA; assay type: in vivo; details: predosing 5.2
Experimental: A patient infected with HIV and HCV was dosed I.V. with BrEA for 3 consecutive days using a formulation that contained 20 mg/mL BrEA in 45% w/v hydroxypropyl-β-cyclodextrin and saline. Four mL of the formulation (80 mg BrEA) was administered to the patient every 4 hours during the 3 day treatment period. The patient's predosing HCV level was 6.5 Log10 as measured by PCR and the HCV level was 6.2 Log10 on the first day of dosing, 5.5 Log10 on the 3rd day of dosing and 4.9 Log10 three days after the last dose was administered. HIV RNA levels as measured by PCR was 5.2 Log10 (predosing), 5.8 Log10 (first day), 5.9 Log10 (third day) and 5.4 Log10 (day 6). The NK cell counts (cells/mm^3) were 28, 41 and 38 at predosing, day 0 and day 3.

[3] = test system: Circulating Hematologic Elements; test: Human HIV clinical protocol: hematology; assay type: in vivo
Experimental: Otherwise untreated patients with CD4 counts of ≧200/μL and HIV-1 viral RNA between 5,000 and 1,000,000 copies/mL (branched-DNA, version 3.0, Bayer, Tarrytown, N.Y.) provided informed consent and were enrolled into a Phase I/II dose-escalation study of the safety and efficacy of intramuscular injections of BrEA. The protocol was conducted in South Africa. In the first cohort, four patients received an initial injection of 1 mL (50 mg), followed by a safety and pharmocokinetic study for seven days, and then received five daily injections of 1 mL (50 mg). The second cohort of 8 patients was randomized in a 1:2 ratio to receive either 50 mg (1 mL) or 100 mg (2 mL) on the same schedule. Patients were allowed at the discretion of the investigators to receive up to three additional courses each, repeated after 28 days of observation. The protocol was amended to introduce an improved formulation, and to extend the initial pharmacokinetic and safety period to 14 days, the observation period following the five daily doses to 35 days, and to allow up to 7 treatment courses. A third cohort of 24 patients was randomized in a 1:2:4 ratio to receive either 50 mg (0.5 mL), 100 mg (1 mL), or 200 mg (2 mL) of BrEA. The patients were all male, since initial safety studies are not permitted in females in South Africa. Within the group of 39 patients randomized, the ethnic demographic included was 18 Caucasian, 17 African, and 4 other. The average age was 34 (range 20-63), the average initial CD4/μL was 434 (range 176-1210), and the average viral load was 13,772 copies/mL (range 3,020-158,489). Patients underwent physical examinations and provided samples for chemistry, hematology, virology and immunology testing approximately every two weeks.
The CD4^+ cell frequency was determined using the FACSCount test. The absolute frequency of a CD8^+ cell subset was calculated in a similar fashion. The absolute white blood cell (WBC) count was determined using an automated cell counter (Advia 120, Bayer, Tarrytown, N.Y.). The nucleated cell region was defined using a forward versus orthogonal scatter plot. The absolute frequency per μL of CD3^− Natural Killer or Dendritic Cell subsets (F) was estimated by the equation: F=(proportion of nucleated cells)×(absolute WBC count per μL).
Statistical analysis of changes in surface phenotypes, hematological, and viral parameters were performed by calculating the area under the curve (AUC) of the percentage difference from baselines (phenotype), percentage difference from the mean of screen and baseline values (hematology), or log10 change from the mean of screen and baseline values (plasma viral RNA) for individual patients. AUC were calculated using the actual number of days between analysis visits for each patient. Because patients were on study for varying periods of time, this value was normalized to the time-averaged AUC by dividing by the number of days of observation. The Student's t-test was then used to analyze the difference from zero for the AUCs from all patients with data available for each parameter. A significant increase in the AUC for the entire 5-month period was interpreted as a nonrandom change in the given parameter.
For these reasons, the time-averaged AUC values for the 5-month period underestimate the magnitude of the individual responses. Maximal individual patient responses were calculated as the mean of the maximal percentage changes from baselines for individual patients at any analysis visit after dosing.
To investigate the kinetics of the responses for the entire population related to the time after dosing, the maximum analysis visit responses were calculated as the average of the maxima of the mean percentage changes from baselines for each analysis visit. Due to the altered BrEA administration interval for cohort 3, the analysis visits were aligned relative to the last dosing visit.

C[C@]12CC[C@H](O)C[C@@H]1CC[C@@H]1[C@@H]2CC[C@]2(C)C(=O)[C@H](Br)C[C@@H]12 [BrEA, 16α-bromo-3β-hydroxy-5α-androstane-17-one]
change in viral load (HIV-1 viral RNA): no overall decrease in viral load | assay potency of BrEA ([1]; after 3 months of storage at 40° C. and 75% relative humidity): at least 95 % of the label value | time BrEA is stable ([1]; elevated temperature and humidity, in the Lot 1 and 2 formulations): at least 3 months | time for plasma radioactivity to rise to near peak concentration [2]: 8 h | HIV RNA levels by PCR (HIV; day 6): 5.4 Log10 | HIV RNA levels by PCR (HIV; first day): 5.8 Log10 | HIV RNA levels by PCR (HIV; third day): 5.9 Log10 | Eosinophils: Maximum Analysis Visit Responses Mean ([3]; analysis visit day 22): 129% (22) | WBC: Maximum Analysis Visit Responses Mean ([3]; analysis visit day 81): 23% (81) | Basophils: Maximum Analysis Visit Responses Mean ([3]; analysis visit day 126): 113% (126) | Eosinophils: Maximum Individual Patient Responses Mean (range) ([3]; change from baseline, n=33): 110% (−37 to 656%) | Basophils: Maximum Individual Patient Responses Mean (range) ([3]; change from baseline, n=37): 182% (−20 to 1,100%) | Monocytes: Maximum Individual Patient Responses Mean (range) ([3]; change from baseline, n=37): 60% (−14 to 189%) | Neutrophils: Maximum Individual Patient Responses Mean (range) ([3]; change from baseline, n=37): 67% (−25 to 297%) | Platelets: Maximum Individual Patient Responses Mean (range) ([3]; change from baseline, n=37): 31% (0 to 122%) | WBC: Maximum Individual Patient Responses Mean (range) ([3]; change from baseline, n=37): 36% (−1 to 159%) | WBC: Time-averaged AUC Increase Mean ± SEM ([3]; i.m. BrEA, HIV patients, n=37, p=0.132): 4.4 ± 3% | Eosinophils: Time-averaged AUC Increase Mean ± SEM ([3]; n=33, p=0.086): 20 ± 11% | Platelets: Time-averaged AUC Increase Mean ± SEM ([3]; n=37, p<0.001): 7 ± 2% | Basophils: Time-averaged AUC Increase Mean ± SEM ([3]; n=37, p=0.001): 42 ± 12% | Neutrophils: Time-averaged AUC Increase Mean ± SEM ([3]; n=37, p=0.009): 11 ± 4% | Monocytes: Time-averaged AUC Increase Mean ± SEM ([3]; n=37, p=0.029): 10 ± 5%
